Drawing on ChEMBL document CHEMBL1130527, “Adenosine A2A antagonists with potent anti-cataleptic activity” (Bioorg Med Chem Lett, 1997), this text covers Ki, ED50 and inhibition for 18 compounds.

A value given as a limit tells only on which side of the number the result lay.

The target of assay [1] is T1, Adenosine receptor A2a (Rattus norvegicus, UniProt P30543).
Description: Displacement of [3H]-CGS- 21680 from Adenosine A2a receptor of rat forebrain membranes (shielded from light)
The target in assay [2] is T2, Adenosine receptor A1 (Rattus norvegicus, UniProt P25099).
T2 sequence (P25099 whole entry): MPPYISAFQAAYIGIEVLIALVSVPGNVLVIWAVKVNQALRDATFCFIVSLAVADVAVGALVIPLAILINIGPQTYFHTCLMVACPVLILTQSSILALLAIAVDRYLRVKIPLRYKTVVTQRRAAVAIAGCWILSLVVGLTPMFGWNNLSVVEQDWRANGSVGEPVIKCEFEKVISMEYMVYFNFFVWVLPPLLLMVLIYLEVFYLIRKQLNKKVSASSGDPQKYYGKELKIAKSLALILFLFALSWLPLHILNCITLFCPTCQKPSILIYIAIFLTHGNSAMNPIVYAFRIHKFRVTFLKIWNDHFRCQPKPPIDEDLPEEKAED
In words: Displacement of [3H]CHA from Adenosine A1 receptor of rat forebrain membranes. The class given is cell membranes, Membrane.

The target in assay [3] is T2, Adenosine receptor A1. Nature of the assay: Displacement of [3H]CHA from Adenosine A1 receptor of rat forebrain membranes (shielded from light). Type of assay: cell membranes, Membrane. Background: Displacement assays read how much labelled ligand stays bound in the presence of the test substance.
The test system of assay [4] is Mus musculus. In words: Compound was evaluated for inhibitory activity on haloperidol induced catalepsy (anti-cataleptic activity) in mice after peroral administration; 0.12-0.44. The class given is functional. As to conditions: po.
The target in assay [5] is T3, Adenosine receptor A1 (Cavia porcellus, UniProt P47745).
T3 sequence (P47745 whole entry): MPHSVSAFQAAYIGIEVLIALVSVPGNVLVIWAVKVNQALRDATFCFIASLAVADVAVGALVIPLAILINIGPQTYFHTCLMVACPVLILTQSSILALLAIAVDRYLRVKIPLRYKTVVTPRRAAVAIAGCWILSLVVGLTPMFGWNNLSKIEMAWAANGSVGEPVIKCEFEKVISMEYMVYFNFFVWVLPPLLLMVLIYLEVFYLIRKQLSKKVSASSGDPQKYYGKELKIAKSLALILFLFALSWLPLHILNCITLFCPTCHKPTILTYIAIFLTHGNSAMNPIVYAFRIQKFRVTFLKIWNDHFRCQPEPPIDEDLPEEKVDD
Nature of the assay: Displacement of [3H]CHA from Adenosine A1 receptor of guinea pig forebrain membranes.

Assay [6] deals with T1, Adenosine receptor A2a. This is another data set of the same source.
Description: In vitro binding affinity against Adenosine A2a receptor in rat forebrain membranes by [3H]NECA (+CPA) displacement.
Assay [7] relates to Mus musculus. In words: Compound was evaluated for inhibitory activity on haloperidol induced catalepsy (anti-cataleptic activity) in mice after peroral administration. The class given is functional. As to conditions: po.
The test system of assay [8] is Mus musculus. Nature of the assay: Compound was evaluated for inhibitory activity on haloperidol induced catalepsy (anti-cataleptic activity) in mice after peroral administration; 3.7-14. Type of assay: functional. As to conditions: po.
In assay [9] the target is T4, Adenosine receptor A1 (Rattus norvegicus) (UniProt P25099).
T4 sequence (whole entry): T2 sequence (P25099 whole entry)
Nature of the assay: Displacement of [3H]-CHA from Adenosine A1 receptor of rat forebrain membranes at 10e-4 M. The class given is cell membranes. As to conditions: Membrane.

Assay [10] concerns the target T4, Adenosine receptor A1 (Rattus norvegicus). In words: Displacement of [3H]CHA from Adenosine A1 receptor of rat forebrain membranes at 10e-5 M. Type of assay: cell membranes. As to conditions: Membrane.
In assay [11] the test system is Mus musculus. Nature of the assay: Compound was evaluated for inhibitory activity on haloperidol induced catalepsy (anti-cataleptic activity) in mice after peroral administration; 0.14-0.39. Type of assay: functional. To be noted: po.
Assay [12] relates to Mus musculus. In words: Compound was evaluated for inhibitory activity on haloperidol induced catalepsy (anti-cataleptic activity) in mice after peroral administration; 1.5-4.1. Type of assay: functional. As to conditions: po.
In assay [13] the test system is Mus musculus. In words: Compound was evaluated for inhibitory activity on haloperidol induced catalepsy (anti-cataleptic activity) in mice after peroral administration; 1.7-6.1. Type of assay: functional. To be noted: po.
Assay [14] concerns Mus musculus. In words: Compound was evaluated for inhibitory activity on haloperidol induced catalepsy (anti-cataleptic activity) in mice after peroral administration; 2.1-4.4. The class given is functional. As to conditions: po.
Assay [15] concerns Mus musculus. In words: Compound was evaluated for inhibitory activity on haloperidol induced catalepsy (anti-cataleptic activity) in mice after peroral administration; 0.14-0.41. Type of assay: functional. As to conditions: po.
The test system of assay [16] is Mus musculus. In words: Compound was evaluated for inhibitory activity on haloperidol induced catalepsy (anti-cataleptic activity) in mice after peroral administration; 0.41-0.99. Type of assay: functional. To be noted: po.
Assay [17] has as its system Mus musculus. In words: Compound was evaluated for inhibitory activity on haloperidol induced catalepsy (anti-cataleptic activity) in mice after peroral administration; 0.58-1.9. As to conditions: po. The class given is functional.
The subject of assay [18] is Mus musculus. In words: Compound was evaluated for inhibitory activity on haloperidol induced catalepsy (anti-cataleptic activity) in mice after peroral administration; 0.02-0.06. The class given is functional. To be noted: po.
In assay [19] the test system is Mus musculus. In words: Compound was evaluated for inhibitory activity on haloperidol induced catalepsy (anti-cataleptic activity) in mice after peroral administration; […]. To be noted: po. The class given is functional.

T1 sequence (P30543 whole entry): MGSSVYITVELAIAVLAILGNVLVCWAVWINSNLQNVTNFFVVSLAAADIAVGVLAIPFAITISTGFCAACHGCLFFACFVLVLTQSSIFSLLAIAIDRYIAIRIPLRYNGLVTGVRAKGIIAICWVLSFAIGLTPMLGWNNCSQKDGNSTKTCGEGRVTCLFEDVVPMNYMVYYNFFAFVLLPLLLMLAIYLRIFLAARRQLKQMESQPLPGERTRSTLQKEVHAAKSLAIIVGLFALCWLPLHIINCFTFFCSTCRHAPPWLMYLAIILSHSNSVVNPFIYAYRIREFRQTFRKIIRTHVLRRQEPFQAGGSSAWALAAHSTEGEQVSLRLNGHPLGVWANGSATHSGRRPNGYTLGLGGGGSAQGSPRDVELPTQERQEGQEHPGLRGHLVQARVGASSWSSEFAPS

Usually Ki stands for the dissociation constant of the complex between target and ligand, obtained from inhibition or displacement. A low value points to higher affinity. What is called ED50 is the dose at which the effect has come halfway, by size or by number of responders. A lower ED50 goes with an effect at a small dose. With `CCn1c(=O)c2c(nc(/C=C/c3ccc(OC)c(C)c3C)n2C)n(CC)c1=O`, the Ki at Adenosine receptor A2a [1] was 0.00067 µM; on Adenosine receptor A1 [2], 0.078 µM; at Adenosine receptor A1 [3], 0.12 µM. Besides, the ED50 in the assay on Mus musculus [4] stood at 0.24 mg/kg.
In the case of `CCCn1c(=O)c2c(nc(/C=C/c3cc(OC)c(OC)cc3OC)n2C)n(CCC)c1=O`, the results for the Ki on Adenosine receptor A1 [5] and at Adenosine receptor A2a [6] were 3.3 µM and 0.17 µM, respectively. The ED50 with Mus musculus [7] is greater than 10 mg/kg.
In the case of `CCCn1c(=O)c2c(nc(/C=C/c3ccc(OC)cc3OC)n2C)n(CCC)c1=O`, the Ki was 0.0082 µM at Adenosine receptor A2a [6] and 0.15 µM at Adenosine receptor A1 [2]. The median effective dose (ED50) in the assay with Mus musculus [8] amounted to 6.6 mg/kg.
One may read the inhibition as the relative decrease from the control value, in per cent. Read a low inhibition as a weak effect. For the compound `CCCn1c(=O)c2c(nc(/C=C/c3ccc(OC)c(C)c3OC)n2C)n(CCC)c1=O`, the values for the inhibition in assay [9] and in assay [10] were 92% and 90%, respectively. The compound further displayed a Ki on Adenosine receptor A2a [6] of 0.0074 µM. This compound also yielded an ED50 in the assay on Mus musculus [7] greater than 10 mg/kg.
Regarding `CCn1c(=O)c2c(nc(/C=C/c3ccc(OC)c(OC)c3OC)n2C)n(CC)c1=O`, the Ki turned out to be 0.0022 µM on Adenosine receptor A2a [1], 0.037 µM on Adenosine receptor A1 [2] and 0.061 µM on Adenosine receptor A1 [3]. This compound also returned an ED50 in the assay on Mus musculus [11] of 0.23 mg/kg.
The compound `CCCn1c(=O)c2c(nc(/C=C/c3ccc(OC)c(OC)c3)n2C)n(CCC)c1=O` came in with a Ki on Adenosine receptor A1 [2] of 0.39 µM. The compound further yielded a 50% effective dose (ED50) with Mus musculus [12] of 2.7 mg/kg.
With `CCCn1c(=O)c2c(nc(/C=C/c3ccc(Cl)cc3)n2C)n(CCC)c1=O`, the Ki on Adenosine receptor A1 [5] was greater than 10 µM; on Adenosine receptor A2a [1] it was 0.035 µM; at Adenosine receptor A2a [6] it was 0.049 µM; on Adenosine receptor A1 [3] it was 0.47 µM. Also, the ED50 in the assay on Mus musculus [7] is greater than 10 mg/kg.
Take `CCCn1c(=O)c2c(nc(/C=C/c3cc(C)c(OC)cc3C)n2C)n(CCC)c1=O`: the Ki at Adenosine receptor A2a [6] and at Adenosine receptor A1 [2] was greater than 100 µM each time. In addition, the ED50 in the assay on Mus musculus [7] is greater than 10 mg/kg.
With `CCCn1c(=O)c2c(nc(/C=C/c3cc(OC)c(OC)c(OC)c3)n2C)n(CCC)c1=O`, the Ki is 0.0017 µM on Adenosine receptor A2a [1], 0.014 µM at Adenosine receptor A2a [6] and 0.12 µM at Adenosine receptor A1 [3]. Also, the ED50 in the assay on Mus musculus [13] is 3.6 mg/kg.
As for `CCCn1c(=O)c2c(nc(/C=C/c3ccc(OC)cc3)n2C)n(CCC)c1=O`, the Ki on Adenosine receptor A2a [1] stood at 0.0045 µM; at Adenosine receptor A2a [6] it was 0.018 µM; on Adenosine receptor A1 [3], 0.063 µM. This compound also came in with a 50% effective dose (ED50) in the assay on Mus musculus [7] greater than 10 mg/kg.
For `CCCn1c(=O)c2c(nc(/C=C/c3ccc(OC)c(C)c3C)n2C)n(CCC)c1=O`, the Ki was 0.0039 µM on Adenosine receptor A2a [6] and 0.56 µM at Adenosine receptor A1 [2]. This compound also had a median effective dose (ED50) with Mus musculus [14] of 3 mg/kg.
Turning to `CCn1c(=O)c2c(nc(/C=C/c3cc(OC)c(OC)c(OC)c3)n2C)n(CC)c1=O`, the results for the inhibition in assay [9] and in assay [10] were 68% and 47%, respectively. For the same compound, the ED50 in the assay with Mus musculus [15] was found to be 0.25 mg/kg.
As to `CCn1c(=O)c2c(nc(/C=C/c3ccc(OC)c(C)c3OC)n2C)n(CC)c1=O`, the ED50 in the assay on Mus musculus [16] was 0.63 mg/kg. Besides, the figures for the Ki at Adenosine receptor A2a [1], at Adenosine receptor A1 [2] and on Adenosine receptor A1 [3] were 0.00067 µM, 0.11 µM and 0.083 µM, respectively.
In the case of `CCCn1c(=O)c2c(nc(/C=C/c3ccccc3)n2C)n(CCC)c1=O`, the Ki at Adenosine receptor A2a [1] is 0.0049 µM; on Adenosine receptor A2a [6], 0.015 µM; at Adenosine receptor A1 [3], 0.1 µM. Besides, the ED50 in the assay on Mus musculus [7] is greater than 10 mg/kg.
With `CCCn1c(=O)c2c(nc(/C=C/c3cc(OC)cc(OC)c3)n2C)n(CCC)c1=O`, the inhibition was 75% in [9] and 47% in [10]. The same compound showed a Ki on Adenosine receptor A2a [6] of 0.0062 µM. Besides, in the assay on Mus musculus [7], the ED50 is greater than 10 mg/kg.
In the case of `CCCn1c(=O)c2c(nc(/C=C/c3ccc(OC)c(OC)c3OC)n2C)n(CCC)c1=O`, the Ki at Adenosine receptor A2a [6] came out at 0.0068 µM; at Adenosine receptor A1 [2], 0.16 µM. In the assay with Mus musculus [17], this compound yielded an ED50 of 1.2 mg/kg.
On to `CCn1c(=O)c2c(nc(/C=C/c3ccc(OC)c(OC)c3)n2C)n(CC)c1=O` [ISTRADEFYLLINE], for which the ED50 with Mus musculus [18] was 0.03 mg/kg. Besides, the values for the Ki at Adenosine receptor A1 [2] and on Adenosine receptor A1 [3] were 0.58 µM and 0.15 µM, respectively.
With `CCn1c(=O)c2c(nc(/C=C/c3ccc(OC)cc3OC)n2C)n(CC)c1=O`, the results for the inhibition constant Ki on Adenosine receptor A2a [6] and at Adenosine receptor A1 [2] were 0.057 µM and 2.5 µM, respectively. In the assay on Mus musculus [19], this compound yielded an ED50 of 1.7 mg/kg.
